According to paper PMC10238386, “Serine ADP-ribosylation in Drosophila provides insights into the evolution of reversible ADP-ribosylation signalling” (Nature Communications, 2023):

Key:
hPARP1 [1] = biological target: T1, hPARP1 (Homo sapiens, UniProt P09874, E988Q); assay: […] auto-mono-ADP-ribosylation, SDS-PAGE autoradiography; format: biochemical; conditions: labelled compound (32P-NAD+); 50 µM NAD+, activated DNA, 2 mM MgCl2, pH 8, room temperature; no HPF1
T1 construct: gene PARP1

hPARP1 [2] = biological target: T2, hPARP1 (Homo sapiens, UniProt P09874); assay: […] auto-ADP-ribosylation (poly-Glu), SDS-PAGE autoradiography; format: biochemical; conditions: labelled compound (32P-NAD+); 50 µM NAD+, activated DNA, 2 mM MgCl2, pH 8, room temperature; no HPF1
T2 construct: gene PARP1
T2 sequence (P09874 2-1014): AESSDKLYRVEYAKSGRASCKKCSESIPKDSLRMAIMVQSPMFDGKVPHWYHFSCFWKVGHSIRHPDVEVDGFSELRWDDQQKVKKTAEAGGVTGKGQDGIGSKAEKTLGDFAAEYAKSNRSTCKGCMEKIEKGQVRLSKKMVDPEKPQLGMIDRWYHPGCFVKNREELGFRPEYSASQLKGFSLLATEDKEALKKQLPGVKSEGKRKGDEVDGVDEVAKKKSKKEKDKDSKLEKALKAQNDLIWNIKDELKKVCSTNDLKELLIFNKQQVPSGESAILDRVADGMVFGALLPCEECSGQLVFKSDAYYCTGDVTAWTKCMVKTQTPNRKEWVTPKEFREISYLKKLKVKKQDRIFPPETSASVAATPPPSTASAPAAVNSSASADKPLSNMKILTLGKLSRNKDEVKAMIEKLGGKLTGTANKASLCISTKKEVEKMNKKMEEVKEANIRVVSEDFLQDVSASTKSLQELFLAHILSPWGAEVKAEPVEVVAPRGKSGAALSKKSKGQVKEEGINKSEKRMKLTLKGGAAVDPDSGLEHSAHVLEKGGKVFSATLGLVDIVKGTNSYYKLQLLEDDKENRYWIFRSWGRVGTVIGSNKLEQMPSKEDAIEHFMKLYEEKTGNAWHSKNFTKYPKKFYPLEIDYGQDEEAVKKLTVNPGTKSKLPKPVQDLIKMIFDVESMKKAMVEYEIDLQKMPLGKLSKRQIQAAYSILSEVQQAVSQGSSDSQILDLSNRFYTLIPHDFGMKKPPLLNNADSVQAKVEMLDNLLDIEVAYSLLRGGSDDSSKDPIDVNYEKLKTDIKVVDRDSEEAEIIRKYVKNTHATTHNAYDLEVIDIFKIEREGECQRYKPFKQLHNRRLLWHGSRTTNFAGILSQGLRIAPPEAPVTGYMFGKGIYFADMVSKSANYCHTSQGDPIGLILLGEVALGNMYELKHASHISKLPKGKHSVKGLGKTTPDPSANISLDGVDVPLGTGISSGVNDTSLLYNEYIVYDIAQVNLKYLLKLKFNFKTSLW

T1 sequence (P09874 2-1014 E988Q): as the sequence (P09874 2-1014) above, with E987Q counted along it

NC(=O)c1ccc[n+]([C@@H]2O[C@H](COP(=O)(O)OP(=O)(O)OC[C@H]3O[C@@H](n4cnc5c(N)ncnc54)[C@H](O)[C@@H]3O)[C@@H](O)[C@H]2O)c1 [NAD^+]
32P auto-mono-ADP-ribosylation, SDS-PAGE autoradiography (hPARP1 [1]): we generated the mono-ADPr variants using the hPARP1 E988Q mutant
32P auto-ADP-ribosylation (poly-Glu), SDS-PAGE autoradiography (hPARP1 [2]): recombinant proteins or peptides were ADP-ribosylated by hPARP1 to produce Glu-ADPr
